Results: patent publication US20250092001A1, “NOVEL EXCITATORY AMINO ACID GLUTAMATE TRANSPORT MODULATORS AND METHODS USING THE SAME” (Drexel University, priority 2022, published 2025)

How the values were obtained:
[1] = test system: Drosophila model of Huntington's disease; assay: Larval olfactory associative learning test; format: in vivo; details: Elav x Htt larvae; 3.53 nM GT467, […] GT511
Protocol: FIG. 7A illustrates certain aspects of a larval olfactory associative learning used to test learning and memory. In FIG. 7A, larvae were trained with either a reinforcer solution containing sucrose (“LIN/SUC”) or a control of distilled water (“LIN/DW”). The trained larvae were then transferred to a dish having test odorant placed on one side and a control on the opposite side. […] The ΔRI (difference between LIN/SUC and LIN/DW performance scores) were then calculated for the high performers (FIG. 7B), low performers (FIG. 7C) and non-performers (FIG. 7D). […] Referring to FIG. 7A, Drosophila larvae were trained with either a reinforcer solution containing sucrose (“LIN/SUC”) or a control of distilled water (“LIN/DW”). The trained larvae were then transferred to a dish having test odorant placed on one side and a control on the opposite side. The ΔRI were then calculated for the high performers (FIG. 7B), low performers (FIG. 7C) and non-performers (FIG. 7D).

[2] = test system: Drosophila model of Huntington's Disease (Htt model); assay: Larval locomotion assay in Drosophila Huntington's disease model; format: in vivo; details: third instar larvae; concentrations as low as two-fold below EC50 and one-fold below EC50
Source text: FIG. 6A illustrate certain aspects of a locomotion assay used to assay the locomotive activities. […] FIGS. 6B and 6C depict the results of the locomotion assay results of wild-type Drosophila (“WT”), as well as Drosophila of a Huntington's disease model treated with vehicle (“Veh”) or with various concentrations of two exemplary GLT-1 modulators. […] The Drosophila Htt model is produced by crossing UAS-Htt([…]) male flies with elav-Gal4 virgin female flies. Both fly strains were purchased from Bloomington Drosophila Stock Center (BDSC, Indiana, USA). […] Locomotion assays were conducted by transferring the third instar larvae of flies to agar plates (FIG. 6A) and counting the number of grid lines crossed in 30 seconds.

PD rats = assay: Elevated plus maze (EPM); format: in vivo, rat; details: male PD rats; 4 mg/kg; 10 min post treatment
Protocol: Referring to FIGS. 11-13, in the elevated plus maze test, male PD rats were treated with either saline or GTS467 (4 mg/kg). 10 min post treatment, the rats were placed in the middle of the elevated plus maze (EPM). Time spent in closed and open arms were recorded for 5 min. Frequency of entries in open and close arms was recorded.

NR2A, NR2B, NR1 = assay: Western blot of cortex and striatum of treated PD rats: NMDA receptor subunits; format: in vivo, rat
Protocol: Cortex and striatum were separately collected, and homogenates were prepared. Homogenates were centrifuged to obtain the protein extract in membrane and cytoplasmic fraction. Protein was estimated for each individual samples. Protein lysates were mixed with 6× loading buffer (5:1 ratio) and were heated (95° C. for 5 min). 20 μg protein was loaded to Tris-Glycine Mini gel for separation at […] for 2 h. Separated proteins were transferred to a PVDF membrane. 3% BSA was used for blocking the nontarget proteins to avoid noise. Membrane was incubated with primary Ab overnight at 4° C. followed by secondary Ab incubation for 3 h at room temperature. The protein bands were detected using ECL methods. The bands were quantified using Image J software.

Structure (SMILES): COc1ccc(NC(=O)C(=O)NCC(c2ccccc2)N2CCN(C)CC2)cc1 (centres unmarked) [GT467, N1-(4-methoxyphenyl)-N2-(2-(4-methylpiperazin-1-yl)-2-phenylethyl)oxalamide]
- Olfactory learning performance (ΔRI) [1]: improved significantly
- Locomotor ability (grid lines crossed in 30 seconds) [2]: restores the Huntington's disease model flies' locomotor ability
- Anxiety (time spent in open vs. closed arm of EPM) (PD rats): did not induce anxiety
- NR1 expression (NR2A, NR2B, NR1; cortex (CRTX)): reduced in CRTX
- NR2A, 2B and NR1 expressions (NR2A, NR2B, NR1; synaptic level): elevation of NR2A, 2B and NR1 expressions
